The results in this text go back to patent publication US10016480B2, “Peptide-based methods for treating pancreatic cancer” (The United States of America, as represented by the …, priority 2014, dated 2018).

No end group written: not given here.

This data set is described as follows: Serum stability. Format: in vitro ADME.

Take “FAKKFAKKFK [Peptide B, Phe-Ala-Lys-Lys-Phe-Ala-Lys-Lys-Phe-Lys]”: the stability in serum result was “stable in serum”.
